Laboratory results reported in PubChem BioAssay (NCI).
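Results reflect a 48-hour exposure of cells in 96-well plates to compound at five concentrations. Here, GI50 denotes the concentration required for 50% inhibition of growth. TGI: total growth inhibition.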 Where a SMILES comes first, the peptide text is derived from it. [ ]: non-standard residue; d: D form. The star is where a group is joined. Decanoyl = CCCCCCCCCC(=O)*; Leu(ol) = CC(C)C[C@H](N)CO; Iva = CC[C@](C)(N)C(=O)O; Aib = CC(C)(N)C(=O)O

Tests used:
Test in all cases: NCI tumour cell line growth inhibition, 48 h
786-0 renal = system: 786-0 renal
A498 renal = system: A498 renal
A549 NSCLC = system: A549 NSCLC
ACHN renal = system: ACHN renal
BT-549 breast = system: BT-549 breast
CAKI-1 renal = system: CAKI-1 renal
CCRF-CEM leukemia = system: CCRF-CEM leukemia
COLO 205 colon = system: COLO 205 colon
DU-145 prostate = system: DU-145 prostate
EKVX NSCLC = system: EKVX NSCLC
HCC-2998 colon = system: HCC-2998 colon
HCT-116 colon = system: HCT-116 colon
HCT-15 colon = system: HCT-15 colon
HL-60(TB) leukemia = system: HL-60(TB) leukemia
HOP-62 NSCLC = system: HOP-62 NSCLC
HOP-92 NSCLC = system: HOP-92 NSCLC
HS 578T breast = system: HS 578T breast
HT29 colon = system: HT29 colon
IGROV1 ovarian = system: IGROV1 ovarian
K-562 leukemia = system: K-562 leukemia
KM12 colon = system: KM12 colon
LOX IMVI melanoma = system: LOX IMVI melanoma
M14 melanoma = system: M14 melanoma
MALME-3M melanoma = system: MALME-3M melanoma
MCF7 breast = system: MCF7 breast
MDA-MB-231 breast = system: MDA-MB-231 breast
MDA-MB-435 = system: MDA-MB-435
MOLT-4 leukemia = system: MOLT-4 leukemia
NCI-H226 lung = system: NCI-H226 lung
NCI-H23 lung = system: NCI-H23 lung
NCI-H460 lung = system: NCI-H460 lung
NCI-H522 lung = system: NCI-H522 lung
NCI/ADR-RES ovarian = system: NCI/ADR-RES ovarian
OVCAR-3 ovarian = system: OVCAR-3 ovarian
OVCAR-4 ovarian = system: OVCAR-4 ovarian
OVCAR-5 ovarian = system: OVCAR-5 ovarian
OVCAR-8 ovarian = system: OVCAR-8 ovarian
PC-3 prostate = system: PC-3 prostate
RPMI-8226 leukemia = system: RPMI-8226 leukemia
RXF 393 renal = system: RXF 393 renal
SF-268 CNS = system: SF-268 CNS
SF-295 CNS = system: SF-295 CNS
SF-539 CNS = system: SF-539 CNS
SK-MEL-2 melanoma = system: SK-MEL-2 melanoma
SK-MEL-28 melanoma = system: SK-MEL-28 melanoma
SK-MEL-5 melanoma = system: SK-MEL-5 melanoma
SK-OV-3 ovarian = system: SK-OV-3 ovarian
SN12C renal = system: SN12C renal
SNB-19 CNS = system: SNB-19 CNS
SNB-75 CNS = system: SNB-75 CNS
SR leukemia = system: SR leukemia
SW-620 colon = system: SW-620 colon
T-47D breast = system: T-47D breast
TK-10 renal = system: TK-10 renal
U251 CNS = system: U251 CNS
UACC-257 melanoma = system: UACC-257 melanoma
UACC-62 melanoma = system: UACC-62 melanoma
UO-31 renal = system: UO-31 renal

Compound: CCCCCCCCCC(=O)NC(C)(C)C(=O)N1CCC[C@H]1C(=O)N[C@@H](CC(C)C)C(=O)N[C@@](C)(CC)C(=O)N[C@@H](CCC(N)=O)C(=O)N[C@H](CCC(N)=O)C(=O)NC(C)(C)C(=O)NC(C)(C)C(=O)N[C@@H](CCC(N)=O)C(=O)N[C@H](CC(C)C)C(=O)N[C@H](CO)CC(C)C (Decanoyl-[Aib]PL[Iva]Q[dQ][Aib][Aib]Q[dL][Leu(ol)])
- GI50 (786-0 renal): 1840 nM
- TGI (786-0 renal): 3500 nM
- GI50 (A498 renal): 1980 nM
- TGI (A498 renal): 3550 nM
- GI50 (A549 NSCLC): 1860 nM
- TGI (A549 NSCLC): 3850 nM
- GI50 (ACHN renal): 1860 nM
- TGI (ACHN renal): 3600 nM
- GI50 (BT-549 breast): 1850 nM
- TGI (BT-549 breast): 3300 nM
- GI50 (CAKI-1 renal): 1700 nM
- TGI (CAKI-1 renal): 3130 nM
- GI50 (CCRF-CEM leukemia): 1810 nM
- TGI (CCRF-CEM leukemia): 3600 nM
- GI50 (COLO 205 colon): 1860 nM
- TGI (COLO 205 colon): 3600 nM
- GI50 (DU-145 prostate): 1750 nM
- TGI (DU-145 prostate): 3130 nM
- GI50 (EKVX NSCLC): 1700 nM
- TGI (EKVX NSCLC): 3170 nM
- GI50 (HCC-2998 colon): 1800 nM
- TGI (HCC-2998 colon): 3390 nM
- GI50 (HCT-116 colon): 1850 nM
- TGI (HCT-116 colon): 3490 nM
- GI50 (HCT-15 colon): 1900 nM
- TGI (HCT-15 colon): 3790 nM
- GI50 (HL-60(TB) leukemia): 1870 nM
- TGI (HL-60(TB) leukemia): 3970 nM
- GI50 (HOP-62 NSCLC): 1950 nM
- TGI (HOP-62 NSCLC): 3800 nM
- GI50 (HOP-92 NSCLC): 1640 nM
- TGI (HOP-92 NSCLC): 3140 nM
- GI50 (HS 578T breast): 1810 nM
- TGI (HS 578T breast): 3510 nM
- GI50 (HT29 colon): 2010 nM
- TGI (HT29 colon): 3830 nM
- GI50 (IGROV1 ovarian): 1800 nM
- TGI (IGROV1 ovarian): 3360 nM
- GI50 (K-562 leukemia): 2440 nM
- GI50 (KM12 colon): 1830 nM
- TGI (KM12 colon): 3330 nM
- GI50 (LOX IMVI melanoma): 1730 nM
- TGI (LOX IMVI melanoma): 3290 nM
- GI50 (M14 melanoma): 1770 nM
- TGI (M14 melanoma): 3290 nM
- GI50 (MALME-3M melanoma): 1510 nM
- TGI (MALME-3M melanoma): 2890 nM
- GI50 (MCF7 breast): 1780 nM
- TGI (MCF7 breast): 3450 nM
- GI50 (MDA-MB-231 breast): 1760 nM
- TGI (MDA-MB-231 breast): 3260 nM
- GI50 (MDA-MB-435): 1750 nM
- TGI (MDA-MB-435): 3160 nM
- GI50 (MOLT-4 leukemia): 2290 nM
- TGI (MOLT-4 leukemia): 5900 nM
- GI50 (NCI-H226 lung): 1880 nM
- TGI (NCI-H226 lung): 3860 nM
- GI50 (NCI-H23 lung): 1790 nM
- TGI (NCI-H23 lung): 3520 nM
- GI50 (NCI-H460 lung): 1890 nM
- TGI (NCI-H460 lung): 3470 nM
- GI50 (NCI-H522 lung): 1730 nM
- TGI (NCI-H522 lung): 3330 nM
- GI50 (NCI/ADR-RES ovarian): 1830 nM
- TGI (NCI/ADR-RES ovarian): 3550 nM
- GI50 (OVCAR-3 ovarian): 1790 nM
- TGI (OVCAR-3 ovarian): 3250 nM
- GI50 (OVCAR-4 ovarian): 2050 nM
- TGI (OVCAR-4 ovarian): 4630 nM
- GI50 (OVCAR-5 ovarian): 1700 nM
- TGI (OVCAR-5 ovarian): 3070 nM
- GI50 (OVCAR-8 ovarian): 1840 nM
- TGI (OVCAR-8 ovarian): 3660 nM
- GI50 (PC-3 prostate): 1710 nM
- TGI (PC-3 prostate): 3300 nM
- GI50 (RPMI-8226 leukemia): 1920 nM
- TGI (RPMI-8226 leukemia): 3950 nM
- GI50 (RXF 393 renal): 1930 nM
- TGI (RXF 393 renal): 3450 nM
- GI50 (SF-268 CNS): 1760 nM
- TGI (SF-268 CNS): 3310 nM
- GI50 (SF-295 CNS): 1750 nM
- TGI (SF-295 CNS): 3260 nM
- GI50 (SF-539 CNS): 1720 nM
- TGI (SF-539 CNS): 3110 nM
- GI50 (SK-MEL-2 melanoma): 1740 nM
- TGI (SK-MEL-2 melanoma): 3240 nM
- GI50 (SK-MEL-28 melanoma): 1690 nM
- TGI (SK-MEL-28 melanoma): 3060 nM
- GI50 (SK-MEL-5 melanoma): 1740 nM
- TGI (SK-MEL-5 melanoma): 3170 nM
- GI50 (SK-OV-3 ovarian): 1930 nM
- TGI (SK-OV-3 ovarian): 3800 nM
- GI50 (SN12C renal): 1700 nM
- TGI (SN12C renal): 3170 nM
- GI50 (SNB-19 CNS): 1700 nM
- TGI (SNB-19 CNS): 3100 nM
- GI50 (SNB-75 CNS): 1460 nM
- TGI (SNB-75 CNS): 2790 nM
- GI50 (SR leukemia): 2250 nM
- GI50 (SW-620 colon): 1860 nM
- TGI (SW-620 colon): 3460 nM
- GI50 (T-47D breast): 2020 nM
- TGI (T-47D breast): 4310 nM
- GI50 (TK-10 renal): 1780 nM
- TGI (TK-10 renal): 3260 nM
- GI50 (U251 CNS): 1720 nM
- TGI (U251 CNS): 3220 nM
- GI50 (UACC-257 melanoma): 1750 nM
- TGI (UACC-257 melanoma): 3240 nM
- GI50 (UACC-62 melanoma): 1630 nM
- TGI (UACC-62 melanoma): 2980 nM
- GI50 (UO-31 renal): 1600 nM
- TGI (UO-31 renal): 2950 nM
